Assay results: patent US20080071190A1, “Timing of Ovulation Based on Vaginal Ph” (priority 2004, published 2008)
Marks after values point to notes of the source that are not given here.

Legend:
[1] = test system: hECE cells; assay: Cell-vitality staining (MTT assay); type: cell-based, human; details: for hECE cell vitality (MTT staining normalized to OD570 of control unperturbed cells), Baseline / hECE cell vitality (MTT staining normalized to OD570 of control unperturbed cells), 30 min pHo: means ±SD; for hECE cell vitality (MTT staining normalized to OD570 of control unperturbed cells), 30 min pHo: after 30 min pHo measurement
Experimental: Cell-vitality staining was done using the 3-[4,5-dimethylthiazol-2-yl]-2,5-diphenyl tetrazolium bromide (MTT) assay. MTT serves as a substrate for mitochondrial dehydrogenases, and only viable functional mitochondria are capable of cleaving MTT to generate the colored product formazan. MTT solution was prepared by dissolving MTT at a concentration of 5 mg/ml in phosphate-buffered saline (PBS) composed of (mM) NaCl (137), KCl (2.68), Na2HPO4 (10), KH2PO4 (1.76), pH 7.4, and filtering the solution through Millipore filter. Following treatments/assays, cells on filters were washed with fresh and warm (37° C.) PBS and incubated for 60 min at 37° C. in MTT solution. At the completion of incubation, cells were washed with PBS, and solubilized in isopropanol containing 0.1 M HCl plus 1% Triton X-100. Lysates were mixed by pipetting to dissolve the reduced MTT crystals (during which time the colorless solution turned purple) and were spinned at 10,000 g for 5 min. The solubilized formazan was measured by determining absorption at 570 nm. Background absorbance at 690 nm was subtracted for each sample, and values were normalized to OD570 (optic density) of control unperturbed cells.

[2] = test system: hECE cells (Human Ectocervical-Vaginal Epithelial Cells); assay: Determinations of extracellular pH (pHo) in luminal and contra-luminal solutions of hECE cells cultured on filters; type: cell-based; details: for effect of co-treatment on estrogen-induced decrease in luminal pHo: hECE cells in steroid-free medium + 10 nM 17β-estradiol; for effect of co-treatment on estrogen-induced decrease in luminal pHo / effect on contra-luminal pHo: tamoxifen 10 μM; for effect of co-treatment on estrogen-induced decrease in luminal pHo / effect on luminal pHo, alone / effect on contra-luminal pHo: ICI-182780 10 μM; for effect of co-treatment on estrogen-induced decrease in luminal pHo / effect on luminal pHo, alone: progesterone 1 μM; for effect on luminal pHo, alone: without 17β-estradiol; for effect on contra-luminal pHo: progesterone 1 μM (not shown); for effect on estrogen-induced acidification of the luminal pHo: 10 nM 17β-estradiol, 30 min pre-treatment, bafilomycin A1 1 μM, ouabain 1 μM (contra-luminal), omeprazol 100 μM, FIG. 10; for effect on luminal pHo (specificity of estrogen effect): hormone at 10 nM, FIG. 8A
Experimental: Referring to FIG. 4A, hECE cells or Human Endocervical Cells were plated on Anocell filters (Anocel™-10, Oxon, UK, obtained through Sigma Chemicals, St. Louis, Mo.), which are ceramic-base filters, pore size of 0.02 μm width, 50 μm depth, and surface area of 0.6 cm^2. Filters 300 and 302 were coated with 4 μg/cm^2 collagen type IV and incubated at 37° C. overnight. The remaining collagen solution was aspirated and the filter was dried at 37° C. Before plating, filters 300 were rinsed 3 times with Hanks' Balanced Salt Solution. Cells were plated either on the upper surface 302 of one filter 300 (for determinations of luminal pHo) or on the bottom surface 304 of the other filter 300 (for determinations of the contra-luminal pHo) at 3·10^5 cells/cm^2. By plating at this relatively high density the cultures became confluent within 12 hours after plating.
Plates containing the filters were placed in a tissue culture incubator (37° C.), and pHo changes in the luminal and contra-luminal solutions were determined using AMANI-1000 microcombination pH electrodes 306 (Harvard Apparatus, Holliston, Mass., obtained through Genomics Solutions, Ann Harbor, Mich.). The AMANI-1000 pH sensor (stored in pH 7.0) is based on metal-metal oxide pH measurements and the pH sensitive layer is immobilized on plastic. The reference electrode employs an Ag/AgCl in 3.4 M KCl reference electrode, and the reference electrode junction is leak-free ensuring no leaks of KCl out of the reference electrode. The design of the pH electrodes 306 enabled their use for the purpose of the present experiments: tip diameter of 1 mm, depth of immersion 1 mm, and response time of less than 5 sec.
Electrodes 306 attached to a stand were held stable with the tip immersed in the solution within the upper compartment of the filter to a depth of about 2 mm avoiding direct contact between the electrode tip and the cultured cells. The electrodes were connected directly to a pH meter 310 (e.g., Accumet pH meter 910) (Fisher Scientific, Suwanee Ga.). After stabilization, the luminal and contraluminal solutions were gently aspirated using glass pipette, and replaced with fresh warmed (37° C.) Basic Salt Solution containing (in mM) NaCl (140), KCl (5), MgCl2 (1), CaCl2 (1), glucose (10), and 0.1% bovine serum albumin, pH 7.4. The volumes in the luminal and contraluminal compartments were 150 μl and 500 μl, respectively. Determinations of changes in pHo were made at time 0, and at 5 min intervals thereafter for up to 30 min.
To remove intracellular estrogens cells were grown in steroid-free medium as described. This procedure involved shifting cells on filters for three days prior to pHo assays to a medium composed of phenol-red-deficient (DMEM)/Ham's F12 or (Sigma Chemicals, St. Louis, Mo.) containing 8% heat inactivated fetal bovine serum that was previously treated with charcoal to remove steroids. Preparation of charcoal-treated serum was described; briefly, dextran-coated charcoal (Sigma Chemicals, St. Louis, Mo.) was dissolved at 8% in 0.15 M NaCl, autoclaved, mixed by stirring, spun and the pellet was resuspended as 1 gm/1.25 ml in H2O. Fetal bovine serum (Hyclone, Logan, Utah) was mixed with the activated charcoal-dextran at 20:1 (Vol:Vol) and incubated for 45 min at 55° C. At the completion of incubation the mixture was spun twice at 800 g for 20 min and the supernatant (serum) was decanted and collected. For experiments, cells were shifted to steroid-free medium for 3 days; alternatively, cells were shifted to the steroid-free medium for 24 hrs and treated with 17β-estradiol for two additional days.

[3] = Steroid-Free Medium + 10 nM 17β-Estradiol + substance at the concentration given
[4] = Steroid-Free Medium + substance, 3 to 4 repeats
[5] = hECE cells in steroid-free medium
[6] = hECE cells, steroid-free medium + estradiol, 1 μM for 30 min added to the luminal solution

## [Cl][Cd][Cl] [CdCl2]
[1]; [3]
  hECE cell vitality (MTT staining normalized to OD570 of control unperturbed cells), Baseline: 95 ± 2%
  hECE cell vitality (MTT staining normalized to OD570 of control unperturbed cells), 30 min pHo: 95 ± 3%
[1]; [4]
  hECE cell vitality (MTT staining normalized to OD570 of control unperturbed cells), Baseline: 94 ± 2%
  hECE cell vitality (MTT staining normalized to OD570 of control unperturbed cells), 30 min pHo: 95 ± 9%

## O=C(O)CN(CCOCCOCCN(CC(=O)O)CC(=O)O)CC(=O)O [EGTA]
[2]; hECE cells, 1.2 mM EGTA plus 1.2 mM CdCl2 in luminal and contra-luminal solutions
  effect on contra-luminal solution: acidification of the contra-luminal solution
[2]; hECE cells, 1.2 mM EGTA plus 1.2 mM CdCl2 in luminal and contra-luminal solutions (extracellular calcium <0.1 mM)
  effect on luminal acidification: blocked the luminal acidification
[2]; hECE cells, following treatment with 1.2 mM EGTA (plus 1.2 mM CdCl2)
  luminal pHo and contra-luminal pHo: ~7.2

## C[C@]12CC[C@@H]3c4ccc(O)cc4C[C@@H](CCCCCCCCC[S+]([O-])CCCC(F)(F)C(F)(F)F)[C@H]3[C@@H]1CC[C@@H]2O (some centres unmarked) [ICI-182780]
[1]; [3]
  hECE cell vitality (MTT staining normalized to OD570 of control unperturbed cells), Baseline: 89 ± 9%
  hECE cell vitality (MTT staining normalized to OD570 of control unperturbed cells), 30 min pHo: 93 ± 6%
[1]; [4]
  hECE cell vitality (MTT staining normalized to OD570 of control unperturbed cells), Baseline: 95 ± 8%
  hECE cell vitality (MTT staining normalized to OD570 of control unperturbed cells), 30 min pHo: 95 ± 3%
[2]
  effect of co-treatment on estrogen-induced decrease in luminal pHo: blocked
[2]; [5]
  effect on luminal pHo, alone: no effect
[2]; hECE cells
  effect on contra-luminal pHo: Neither tamoxifen ICI-182780 or progesterone had any appreciable effect

## CO/C1=C\C(C)=C\[C@@H](C)[C@@H](O)[C@@H](C)C/C(C)=C/C=C/[C@H](OC)[C@@H]([C@@H](C)[C@@H](O)[C@H](C)[C@@]2(O)C[C@@H](O)[C@H](C)[C@@H](C(C)C)O2)OC1=O [bafilomycin A1]
[1]; [3]
  hECE cell vitality (MTT staining normalized to OD570 of control unperturbed cells), Baseline: 93 ± 7%
  hECE cell vitality (MTT staining normalized to OD570 of control unperturbed cells), 30 min pHo: 92 ± 5%
[1]; [4]
  hECE cell vitality (MTT staining normalized to OD570 of control unperturbed cells), Baseline: 94 ± 3%
  hECE cell vitality (MTT staining normalized to OD570 of control unperturbed cells), 30 min pHo: 95 ± 4%
[2]; hECE cells
  effect on estrogen-induced acidification of the luminal pHo: blocked
[2]; hECE cells, steroid-free medium + estradiol, 1 μM for 30 min added to the contra-luminal solution
  effect on the contra-luminal or luminal pHo: no effect
[2]; [6]
  effect on luminal pHo: significantly blocked the estrogen-decrease in luminal pHo
  effect on the contra-luminal pHo: little effect

## CC/C(=C(/CC)c1ccc(O)cc1)c1ccc(O)cc1 [diethylstilbestrol]
[2]; [5]
  effect on luminal pHo (specificity of estrogen effect): could mimic 17β-estradiol decrease in luminal pHo

## COc1ccc2[nH]c([S+]([O-])Cc3ncc(C)c(OC)c3C)nc2c1 (centres unmarked) [omeprazol]
[1]; [3]
  hECE cell vitality (MTT staining normalized to OD570 of control unperturbed cells), Baseline: 91 ± 6%
  hECE cell vitality (MTT staining normalized to OD570 of control unperturbed cells), 30 min pHo: 95 ± 4%
[1]; [4]
  hECE cell vitality (MTT staining normalized to OD570 of control unperturbed cells), Baseline: 92 ± 5%
  hECE cell vitality (MTT staining normalized to OD570 of control unperturbed cells), 30 min pHo: 95 ± 4%
[2]; hECE cells
  effect on estrogen-induced acidification of the luminal pHo: no effect

## C[C@@H]1O[C@@H](O[C@H]2C[C@@H](O)[C@]3(CO)[C@H]4[C@H](O)C[C@]5(C)[C@@H](C6=CC(=O)OC6)CC[C@]5(O)[C@@H]4CC[C@]3(O)C2)[C@H](O)[C@H](O)[C@H]1O [ouabain]
[1]; [3]
  hECE cell vitality (MTT staining normalized to OD570 of control unperturbed cells), Baseline: 62 ± 4^a,b %
  hECE cell vitality (MTT staining normalized to OD570 of control unperturbed cells), 30 min pHo: 74 ± 9^b %
[1]; [4]
  hECE cell vitality (MTT staining normalized to OD570 of control unperturbed cells), Baseline: 71 ± 8^a,b %
  hECE cell vitality (MTT staining normalized to OD570 of control unperturbed cells), 30 min pHo: 69 ± 9^b %
[1]; hECE cells, treatments of Table 1
  effect on MTT cleavage (cell viability): decreased MTT incorporation and staining
[2]; hECE cells
  effect on estrogen-induced acidification of the luminal pHo: attenuated mildly estradiol effect
[2]; hECE cells, no estradiol, ouabain 1 μM, 30 min, added to contra-luminal solution
  effect on luminal pHo in cells grown in steroid-free medium: mild alkalinization of luminal pHo

## CC(=O)[C@H]1CC[C@H]2[C@@H]3CCC4=CC(=O)CC[C@]4(C)[C@H]3CC[C@]12C [progesterone]
[1]; [3]
  hECE cell vitality (MTT staining normalized to OD570 of control unperturbed cells), Baseline: 91 ± 6%
  hECE cell vitality (MTT staining normalized to OD570 of control unperturbed cells), 30 min pHo: 95 ± 4%
[1]; [4]
  hECE cell vitality (MTT staining normalized to OD570 of control unperturbed cells), Baseline: 95 ± 5%
  hECE cell vitality (MTT staining normalized to OD570 of control unperturbed cells), 30 min pHo: 95 ± 4%
[2]
  effect of co-treatment on estrogen-induced decrease in luminal pHo: no significant effect
[2]; [5]
  effect on luminal pHo, alone: no effect
[2]; hECE cells
  effect on contra-luminal pHo: Neither tamoxifen ICI-182780 or progesterone had any appreciable effect

## CC/C(=C(\c1ccccc1)c1ccc(OCCN(C)C)cc1)c1ccccc1 [tamoxifen]
[1]; [3]
  hECE cell vitality (MTT staining normalized to OD570 of control unperturbed cells), Baseline: 95 ± 3%
  hECE cell vitality (MTT staining normalized to OD570 of control unperturbed cells), 30 min pHo: 96 ± 4%
[1]; [4]
  hECE cell vitality (MTT staining normalized to OD570 of control unperturbed cells), Baseline: 93 ± 4%
  hECE cell vitality (MTT staining normalized to OD570 of control unperturbed cells), 30 min pHo: 95 ± 4%
[2]
  effect of co-treatment on estrogen-induced decrease in luminal pHo: no significant effect
[2]; hECE cells in steroid-free medium, tamoxifen 10 μM alone, 24 hrs, decreased from 7.24±0.02, p<0.01
  luminal pHo: 7.15±0.02
[2]; hECE cells
  effect on contra-luminal pHo: Neither tamoxifen ICI-182780 or progesterone had any appreciable effect

## C[C@]12CC[C@H]3[C@@H](CCC4=CC(=O)CC[C@@]43C)[C@@H]1CC[C@@H]2O [testosterone]
[2]; [5]
  effect on luminal pHo (specificity of estrogen effect): no effect
